The values that follow come from US9765060B2 (Gilead Sciences, Inc., priority 2014, dated 2017).

For one assay, the target named is PI3K isoform δ (Homo sapiens (Human), UniProt O00329). Nature of the assay: TR-FRET assay of enzymatic activity of class I PI3K isoforms. The settings on record: read-out: IC50 (nM) for PI3K isoform δ (Table 2); TR-FRET; 2× Km ATP, 2 μM PIP2; incubated for 30 minutes at 25° C.
Chain of PI3K isoform δ (O00329 whole entry, canonical isoform): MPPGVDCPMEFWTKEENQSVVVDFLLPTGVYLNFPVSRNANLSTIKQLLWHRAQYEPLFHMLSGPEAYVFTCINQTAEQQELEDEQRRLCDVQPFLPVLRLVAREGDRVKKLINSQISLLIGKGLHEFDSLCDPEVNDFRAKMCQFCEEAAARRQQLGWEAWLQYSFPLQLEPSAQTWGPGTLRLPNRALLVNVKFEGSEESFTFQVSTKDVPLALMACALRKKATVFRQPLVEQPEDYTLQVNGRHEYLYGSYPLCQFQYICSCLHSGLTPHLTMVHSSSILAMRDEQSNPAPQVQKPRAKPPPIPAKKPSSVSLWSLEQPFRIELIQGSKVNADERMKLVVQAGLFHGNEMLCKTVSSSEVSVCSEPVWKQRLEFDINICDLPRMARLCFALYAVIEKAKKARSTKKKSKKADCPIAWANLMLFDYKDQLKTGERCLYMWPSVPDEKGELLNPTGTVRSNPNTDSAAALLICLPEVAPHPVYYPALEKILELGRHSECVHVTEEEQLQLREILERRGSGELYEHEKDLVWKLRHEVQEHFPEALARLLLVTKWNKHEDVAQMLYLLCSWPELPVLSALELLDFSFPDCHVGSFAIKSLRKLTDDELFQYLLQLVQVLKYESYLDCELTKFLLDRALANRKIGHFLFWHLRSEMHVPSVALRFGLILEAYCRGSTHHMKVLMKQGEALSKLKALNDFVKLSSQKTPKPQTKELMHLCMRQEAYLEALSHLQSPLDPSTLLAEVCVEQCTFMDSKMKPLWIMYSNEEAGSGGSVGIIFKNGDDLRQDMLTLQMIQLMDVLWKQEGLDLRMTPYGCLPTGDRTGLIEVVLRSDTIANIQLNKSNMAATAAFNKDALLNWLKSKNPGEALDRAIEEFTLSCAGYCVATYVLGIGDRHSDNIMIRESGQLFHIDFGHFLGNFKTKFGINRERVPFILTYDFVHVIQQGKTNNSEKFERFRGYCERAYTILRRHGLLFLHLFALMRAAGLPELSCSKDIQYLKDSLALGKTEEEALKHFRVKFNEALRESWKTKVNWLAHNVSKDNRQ
Chain of PI3K isoform δ (P27986 whole entry partner, canonical isoform): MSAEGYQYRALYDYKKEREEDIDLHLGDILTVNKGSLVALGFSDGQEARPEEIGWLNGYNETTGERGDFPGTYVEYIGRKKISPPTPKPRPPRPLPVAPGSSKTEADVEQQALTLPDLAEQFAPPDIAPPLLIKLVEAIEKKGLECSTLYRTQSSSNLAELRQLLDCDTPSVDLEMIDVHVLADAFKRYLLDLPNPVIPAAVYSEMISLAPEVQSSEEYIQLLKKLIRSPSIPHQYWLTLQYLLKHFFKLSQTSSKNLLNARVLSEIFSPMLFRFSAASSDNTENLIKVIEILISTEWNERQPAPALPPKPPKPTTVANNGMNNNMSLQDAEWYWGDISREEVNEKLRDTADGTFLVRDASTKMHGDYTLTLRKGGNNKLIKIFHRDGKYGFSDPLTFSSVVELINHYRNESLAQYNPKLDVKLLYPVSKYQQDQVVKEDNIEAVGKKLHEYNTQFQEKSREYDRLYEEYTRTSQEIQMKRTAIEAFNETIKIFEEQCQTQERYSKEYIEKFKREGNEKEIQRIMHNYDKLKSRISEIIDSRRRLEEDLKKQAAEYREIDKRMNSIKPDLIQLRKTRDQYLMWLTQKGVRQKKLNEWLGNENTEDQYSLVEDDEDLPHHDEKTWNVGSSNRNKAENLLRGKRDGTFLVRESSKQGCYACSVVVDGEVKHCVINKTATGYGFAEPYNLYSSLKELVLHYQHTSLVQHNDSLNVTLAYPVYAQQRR
Description: TR-FRET monitored the formation of 3,4,5-inositol triphosphate molecule that competed with fluorescently labeled PIP3 for binding to the GRP-1 pleckstrin homology domain protein. […] Class I PI3K isoforms were expressed and purified as heterodimeric recombinant proteins. All assay reagents and buffers for the TR-FRET assay were purchased from Millipore.
Regarding `N#Cc1c(N)nc(N)nc1N[C@H](c1nc2cccc(C#N)c2c(=O)n1-c1ccccc1)C1CC1` [Compound 1a, (S)-2-(cyclopropyl((2,6-diamino-5-cyanopyrimidin-4-yl)amino)methyl)-4-oxo-3-phenyl-3,4-dihydroquinazoline-5-carbonitrile], the IC50 came to 5 nM.
Take `N#Cc1c(N)nc(N)nc1N[C@H](c1nc2cccc(Cl)c2c(=O)n1-c1cc(F)cc(F)c1)C1CC1` [Compound 13a, (S)-2,4-diamino-6-(((5-chloro-3-(3,5-difluorophenyl)-4-oxo-3,4-dihydroquinazolin-2-yl)(cyclopropyl)methyl)amino)pyrimidine-5-carbonitrile]: the half-maximal inhibitory concentration (IC50) came to 1 nM.
For the compound `CN(C)C(=O)C[C@H](Nc1nc(N)nc(N)c1C#N)c1nc2cccc(Cl)c2c(=O)n1-c1cc(F)cc(F)c1` [Compound 9a, (S)-3-(5-chloro-3-(3,5-difluorophenyl)-4-oxo-3,4-dihydroquinazolin-2-yl)-3-((2,6-diamino-5-cyanopyrimidin-4-yl)amino)-N,N-dimethylpropanamide], the half-maximal inhibitory concentration (IC50) was determined as 61 nM.
With `C[C@H](Nc1ncnc(N)c1C#N)c1nc2cccc(Cl)c2c(=O)n1-c1ccccc1` [Compound Y, (S)-4-amino-6-((1-(5-chloro-4-oxo-3-phenyl-3,4-dihydroquinazolin-2-yl)ethyl)amino)pyrimidine-5-carbonitrile, reference compound], the IC50 stood at 0.4 nM.

Staying with this assay, now noted: read-out: IC50 (nM) for PI3K isoform δ (Table 3); TR-FRET; 2× Km ATP, 2 μM PIP2; incubated for 30 minutes at 25° C.
Take `N#Cc1c(N)nc(N)nc1N1CCC[C@H]1c1nc2cccc(F)c2c(=O)n1-c1cc(F)cc(F)c1` [Compound 87, (S)-2,4-diamino-6-(2-(3-(3,5-difluorophenyl)-5-fluoro-4-oxo-3,4-dihydroquinazolin-2-yl)pyrrolidin-1-yl)pyrimidine-5-carbonitrile]: the IC50 was determined as 23 nM.
Same read-out and setting: as for `N#Cc1c(N)nc(N)nc1N1CCC[C@H]1c1nc2c(Cl)ccc(Cl)c2c(=O)n1-c1cccc(S(N)(=O)=O)c1` [Compound 91, (S)-3-(5,8-dichloro-2-(1-(2,6-diamino-5-cyanopyrimidin-4-yl)pyrrolidin-2-yl)-4-oxoquinazolin-3(4H)-yl)benzenesulfonamide], the figure is 17 nM.
For `Cc1cccc2c(=O)n(-c3cc(F)cc(F)c3)c([C@@H]3CCCN3c3nc(N)nc(N)c3C#N)nc12` [Compound 86, (S)-2,4-diamino-6-(2-(3-(3,5-difluorophenyl)-8-methyl-4-oxo-3,4-dihydroquinazolin-2-yl)pyrrolidin-1-yl)pyrimidine-5-carbonitrile], the 50% inhibitory concentration (IC50) is 12 nM.
The same measure, in the same setting: as for `CC(Cc1cccc2nc([C@H](C)Nc3nc(N)nc(N)c3C#N)n(-c3ccccc3)c(=O)c12)N1CCCC1` (stereo partly drawn) [Compound 45, (S)-2,4-diamino-6-((1-(4-oxo-3-phenyl-5-(2-(pyrrolidin-1-yl)propyl)-3,4-dihydroquinazolin-2-yl)ethyl)amino)pyrimidine-5-carbonitrile], the figure is 0.7 nM.
Same read-out and setting: the result for `C[C@H](Nc1nc(N)nc(N)c1C#N)c1nc2cccc(SCCO)c2c(=O)n1-c1cccc(F)c1` [Compound 79, (S)-2,4-diamino-6-((1-(3-(3-fluorophenyl)-5-((2-hydroxyethyl)thio)-4-oxo-3,4-dihydroquinazolin-2-yl)ethyl)amino)pyrimidine-5-carbonitrile] reads 51 nM; that for `N#Cc1c(N)nc(N)nc1N1CCC[C@H]1c1nc2c(Cl)ccc(Cl)c2c(=O)n1-c1cccc(S(N)(=O)=O)c1` (single isomer, unassigned) [Compound 92], 7 nM; that for `Cc1nc(N)c(Br)c(N[C@@H](C)c2nc3cccc(Cl)c3c(=O)n2-c2cc(F)cc(F)c2)n1` [Compound 21, (S)-2-(1-((6-amino-5-bromo-2-methylpyrimidin-4-yl)amino)ethyl)-5-chloro-3-(3,5-difluorophenyl)quinazolin-4(3H)-one], 30 nM.
Take `Cc1nc(N)nc(N[C@@H](C)c2nc3cccc(Cl)c3c(=O)n2-c2ccccc2)c1I` [Compound 97, (S)-2-(1-((2-amino-5-iodo-6-methylpyrimidin-4-yl)amino)ethyl)-5-chloro-3-phenylquinazolin-4(3H)-one]: the IC50 was determined as 0.6 nM.
Still for that read-out and setting: the result for `Nc1nc(N)c(Cl)c(N2CCOC[C@H]2c2nc3cccc(Cl)c3c(=O)n2-c2ccccc2)n1` [Compound 100, (R)-5-chloro-2-(4-(2,6-diamino-5-chloropyrimidin-4-yl)morpholin-3-yl)-3-phenylquinazolin-4(3H)-one] reads 8400 nM; that for `C[C@H](Nc1nc(N)nc(N)c1C#N)c1nc2cccc(CCCC(=O)O)c2c(=O)n1-c1cc(F)cc(F)c1` [Compound 71, (S)-4-(2-(1-((2,6-diamino-5-cyanopyrimidin-4-yl)amino)ethyl)-3-(3,5-difluorophenyl)-4-oxo-3,4-dihydroquinazolin-5-yl)butanoic acid], 2 nM.
For the compound `Cc1ccc(Cl)c2c(=O)n(-c3cc(F)cc(F)c3)c([C@@H]3CCCN3c3nc(N)nc(N)c3C#N)nc12` [Compound 84, (S)-2,4-diamino-6-(2-(5-chloro-3-(3,5-difluorophenyl)-8-methyl-4-oxo-3,4-dihydroquinazolin-2-yl)pyrrolidin-1-yl)pyrimidine-5-carbonitrile], the IC50 was 4 nM.
As to `C[C@H](Nc1nc(N)nc(N)c1C#N)c1nc2cccc(OCCN3CCCC3=O)c2c(=O)n1-c1ccccc1` [Compound 26], the IC50 turned out to be 21 nM.
Take “N-((3R,5S)-5-(5-chloro-3-(3-(difluorophenyl)-5-fluorophenyl)-4-oxo-3,4-dihydroquinazolin-2-yl)-1-(2,6-diamino-5-cyanopyrimidin-4-yl)pyrrolidin-3-yl)-2,2-difluoroacetamide [Compound 110]”: the half-inhibitory concentration (IC50) was found to be 2 nM.
Still for that read-out and setting: as for `C[C@H](Nc1nc(N)nc(N)c1Cl)c1nc2cccc(CCC(N)=O)c2c(=O)n1-c1ccccc1` [Compound 43, (S)-3-(2-(1-((2,6-diamino-5-chloropyrimidin-4-yl)amino)ethyl)-4-oxo-3-phenyl-3,4-dihydroquinazoline-5-yl)propanamide], the figure is 9 nM.
`C[C@H](Nc1nc(N)nc(N)c1C#N)c1nc2cccc(OCCN3CCCCCC3)c2c(=O)n1-c1ccccc1` [Compound 23, (S)-2,4-diamino-6-((1-(5-(2-(azepan-1-yl)ethoxy)-4-oxo-3-phenyl-3,4-dihydroquinazolin-2-yl)ethyl)amino)pyrimidine-5-carbonitrile]: the IC50 is 10 nM.
Still for that read-out and setting: as for `N#Cc1c(N)nc(N)nc1N[C@H](c1nc2cccc(CCCN3CCCCC3)c2c(=O)n1-c1ccccc1)C1CC1` [Compound 57, (S)-2,4-diamino-6-((cyclopropyl(4-oxo-3-phenyl-5-(3-(piperidin-1-yl)propyl)-3,4-dihydroquinazolin-2-yl)methyl)amino)pyrimidine-5-carbonitrile], the figure is 1.4 nM.
For `C[C@H](Nc1nc(N)nc(N)c1C#N)c1nc2cccc(OCC(=O)N3CCOCC3)c2c(=O)n1-c1ccccc1` [Compound 35, (S)-2,4-diamino-6-((1-(5-(2-morpholino-2-oxoethoxy)-4-oxo-3-phenyl-3,4-dihydroquinazolin-2-yl)ethyl)amino)pyrimidine-5-carbonitrile], the IC50 stood at 7 nM.
Turning to `Cc1nc(N)c(C#N)c(N[C@@H](C)c2nc3cccc(Cl)c3c(=O)n2-c2ccccc2)n1` [Compound 98, (S)-4-amino-6-((1-(5-chloro-4-oxo-3-phenyl-3,4-dihydroquinazolin-2-yl)ethyl)amino)-2-methylpyrimidine-5-carbonitrile], the IC50 was found to be 10 nM.
For `C[C@H](Nc1nc(N)nc(N)c1C#N)c1nc2cccc(OCC3(C)COC3)c2c(=O)n1-c1ccccc1` [Compound 34, (S)-2,4-diamino-6-((1-(5-((3-methyloxetan-3-yl)methoxy)-4-oxo-3-phenyl-3,4-dihydroquinazolin-2-yl)ethyl)amino)pyrimidine-5-carbonitrile], the IC50 came out at 46 nM.
Take `C[C@H](Nc1nc(N)nc(N)c1C#N)c1nc2cccc(S(=O)(=O)CCN3CCCC3)c2c(=O)n1-c1cccc(F)c1` [Compound 82, (S)-2,4-diamino-6-((1-(3-(3-fluorophenyl)-4-oxo-5-((2-(pyrrolidin-1-yl)ethyl)sulfonyl)-3,4-dihydroquinazolin-2-yl)ethyl)amino)pyrimidine-5-carbonitrile]: the half-inhibitory concentration (IC50) turned out to be 2 nM.
`CS(=O)(=O)c1cccc2nc([C@@H]3CCCN3c3nc(N)nc(N)c3C#N)n(-c3ccccc3F)c(=O)c12` (atropisomer, axis not shown) [Compound 73, (S)-2,4-diamino-6-(2-(3-(2-fluorophenyl)-5-(methylsulfonyl)-4-oxo-3,4-dihydroquinazolin-2-yl)pyrrolidin-1-yl)pyrimidine-5-carbonitrile]: the 50% inhibitory concentration (IC50) turned out to be 4 nM.
Still for that read-out and setting: the result for `C[C@H](Nc1nc(N)nc(N)c1C#N)c1nc2cccc(S(=O)(=O)C3CCCC3)c2c(=O)n1-c1cccc(F)c1` [Compound 80, (S)-2,4-diamino-6-((1-(5-(cyclopentylsulfonyl)-3-(3-fluorophenyl)-4-oxo-3,4-dihydroquinazolin-2-yl)ethyl)amino)pyrimidine-5-carbonitrile] reads 61 nM; that for `C[C@H](Nc1nc(N)nc(N)c1C#N)c1nc2cccc(CCCN3CCCCC3)c2c(=O)n1-c1ccccc1` [Compound 46, (S)-2,4-diamino-6-((1-(4-oxo-3-phenyl-5-(3-(piperidin-1-yl)propyl)-3,4-dihydroquinazolin-2-yl)ethyl)amino)pyrimidine-5-carbonitrile], 0.4 nM; that for `C[C@H](Nc1nc(N)nc(N)c1C#N)c1nc2c(F)ccc(CCC(N)=O)c2c(=O)n1-c1ccccc1` [Compound 38, (S)-3-(2-(1-((2,6-diamino-5-cyanopyrimidin-4-yl)amino)ethyl)-8-fluoro-4-oxo-3-phenyl-3,4-dihydroquinazoline-5-yl)propanamide], 0.5 nM.
As to `CS(=O)(=O)c1cccc2nc([C@@H]3CCCN3c3nc(N)nc(N)c3C#N)n(-c3cccc(F)c3)c(=O)c12` [Compound 72, (S)-2,4-diamino-6-(2-(3-(3-fluorophenyl)-5-(methylsulfonyl)-4-oxo-3,4-dihydroquinazolin-2-yl)pyrrolidin-1-yl)pyrimidine-5-carbonitrile], the IC50 was 4 nM.
